Experimental data published in patent US12660819B2, “Herbicidal derivatives” (SYNGENTA CROP PROTECTION AG, priority 2020, dated 2026).

How the values were obtained:
Type in all cases: in vivo
[1] = tested on: Ipomoea hederacea (IPOHE); assay: Post-emergence Test (glasshouse, percentage damage to the plant); settings: post-emergence; 1000 g/ha unless otherwise stated; evaluated after 13 days
Procedure, shortened: (§1)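 Percentage damage to the plant, assessed 13 days after application and scored 1–5 in 20% bands. Pots sown in standard soil received compound at 1000 g/ha unless otherwise stated, sprayed under 24/16 °C, 14 h light, 65% humidity.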

[2] = tested on: Amaranthus palmeri (AMAPA); assay: as above; settings: post-emergence; 1000 g/ha unless otherwise stated; evaluated after 13 days
Procedure, shortened: (§2)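 Rate 1000 g/ha unless stated otherwise. Vehicle: acetone/water 50:50 with 0.5% Tween 20, diluted into aqueous spray. Timing: spray after sowing, read 13 days later. Score: 5=81-100%, 4=61-80%, 3=41-60%, 2=21-40%, 1=0-20% damage.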

[3] = tested on: Setaria faberi (SETFA); assay: as above; settings: post-emergence; 1000 g/ha unless otherwise stated; evaluated after 13 days
Procedure, shortened: as §1

[4] = tested on: Zea mays (ZEAMX); assay: as above; settings: post-emergence; 1000 g/ha unless otherwise stated; evaluated after 13 days
Procedure, shortened: as §1

[5] = tested on: Amaranthus retoflexus (AMARE); assay: as above; settings: post-emergence; 1000 g/ha unless otherwise stated; evaluated after 13 days
Procedure, shortened: as §2

[6] = tested on: Echinochloa crus-galli (ECHCG); assay: as above; settings: post-emergence; 1000 g/ha unless otherwise stated; evaluated after 13 days
Procedure, shortened: as §2

[7] = tested on: Amaranthus retoflexus (AMARE); assay: Pre-emergence Test (glasshouse, percentage damage to the plant); settings: 1000 g/ha unless otherwise stated, Amaranthus retoflexus
[8] = tested on: Zea mays (ZEAMX); assay: as above; settings: 1000 g/ha unless otherwise stated, Zea mays
[9] = tested on: Setaria faberi (SETFA); assay: as above; settings: 1000 g/ha unless otherwise stated, Setaria faberi
[10] = tested on: Echinochloa crus-galli (ECHCG); assay: as above; settings: 1000 g/ha unless otherwise stated, Echinochloa crus-galli
[11] = tested on: Ipomoea hederacea (IPOHE); assay: as above; settings: 1000 g/ha unless otherwise stated, Ipomoea hederacea
[12] = tested on: Amaranthus palmeri (AMAPA); assay: as above; settings: 1000 g/ha unless otherwise stated, Amaranthus palmeri

SMILES | IPOHE, percentage damage caused to the plant (five-point scale) [1] | AMAPA, percentage damage caused to the plant (five-point scale) [2] | SETFA, percentage damage caused to the plant (five-point scale) [3] | ZEAMX, percentage damage caused to the plant (five-point scale) [4] | AMARE, percentage damage caused to the plant (five-point scale) [5] | ECHCG, percentage damage caused to the plant (five-point scale) [6] | percentage damage to the plant, AMARE (five-point scale) [7] | percentage damage to the plant, ZEAMX (five-point scale) [8] | percentage damage to the plant, SETFA (five-point scale) [9] | percentage damage to the plant, ECHCG (five-point scale) [10] | percentage damage to the plant, IPOHE (five-point scale) [11] | percentage damage to the plant, AMAPA (five-point scale) [12]
CCn1c(C)c(-c2cc(OCCOC)c(Cl)cc2F)c(=O)c(C(=O)O)c1-c1ccc(F)c(F)c1 [Compound 261, 5-[4-chloro-2-fluoro-5-(2-methoxyethoxy)phenyl]-2-(3,4-difluorophenyl)-1-ethyl-6-methyl-4-oxo-pyridine-3-carboxylic acid] | 2 (2=21-40%) | 4 (4=61-80%) | 4 (4=61-80%) | 3 (3=41-60%) | 5 (5=81-100%) | 4 (4=61-80%) | 4 (4=61-80%) | 1 (1=0-20%) | 4 (4=61-80%) | 4 (4=61-80%) | 4 (4=61-80%) | 5 (5=81-100%)
Cc1c(-c2ccc(Cl)cc2Cl)c(=O)c(C(=O)O)c(-c2ccc(Cl)c(Cl)c2)n1C [Compound 251, 5-(2,4-dichlorophenyl)-2-(3,4-dichlorophenyl)-1,6-dimethyl-4-oxo-pyridine-3-carboxylic acid] | 0 | 3 (3=41-60%) | 0 | 1 (1=0-20%) | 4 (4=61-80%) | 1 (1=0-20%) | 1 (1=0-20%) | 0 | 0 | 0 | 0 | 2 (2=21-40%)
CCn1c(C)c(-c2ccc(Cl)cc2)c(=O)c(C(=O)O)c1-c1cnc(Cl)c(Cl)c1 [Compound 208, 5-(4-chlorophenyl)-2-(5,6-dichloro-3-pyridyl)-1-ethyl-6-methyl-4-oxo-pyridine-3-carboxylic acid] | 2 (2=21-40%) | 4 (4=61-80%) | 5 (5=81-100%) | 4 (4=61-80%) | 4 (4=61-80%) | 3 (3=41-60%) | 1 (1=0-20%) | 0 | 2 (2=21-40%) | 1 (1=0-20%) | 2 (2=21-40%) | 5 (5=81-100%)
Cc1c(-c2ccc(F)cc2F)c(=O)c(C(=O)O)c(-c2ccc(Cl)c(Cl)c2)n1C [Compound 252, 2-(3,4-dichlorophenyl)-5-(2,4-difluorophenyl)-1,6-dimethyl-4-oxo-pyridine-3-carboxylic acid] | 2 (2=21-40%) | 5 (5=81-100%) | 4 (4=61-80%) | 2 (2=21-40%) | 4 (4=61-80%) | 5 (5=81-100%) | 3 (3=41-60%) | 0 | 4 (4=61-80%) | 5 (5=81-100%) | 3 (3=41-60%) | 5 (5=81-100%)
CCn1c(C)c(-c2ccc(Cl)cc2)c(=O)c(C(=O)OC)c1-c1cnc(Cl)c(Cl)c1 [Compound 215, methyl 5-(4-chlorophenyl)-2-(5,6-dichloro-3-pyridyl)-1-ethyl-6-methyl-4-oxo-pyridine-3-carboxylate] | 1 (1=0-20%) | 4 (4=61-80%) | 3 (3=41-60%) | 3 (3=41-60%) | 4 (4=61-80%) | 3 (3=41-60%) | 4 (4=61-80%) | 0 | 4 (4=61-80%) | 2 (2=21-40%) | 1 (1=0-20%) | 3 (3=41-60%)
CCn1c(C)c(-c2ccc(F)cc2F)c(=O)c(C(=O)OC)c1-c1cnc(Cl)c(Cl)c1 [Compound 213, methyl 2-(5,6-dichloro-3-pyridyl)-5-(2,4-difluorophenyl)-1-ethyl-6-methyl-4-oxo-pyridine-3-carboxylate] | 1 (1=0-20%) | 3 (3=41-60%) | 0 | 1 (1=0-20%) | – | 0 | 0 | 0 | 0 | 0 | 0 | 0
CCn1c(C)c(-c2ccc(Cl)cc2F)c(=O)c(C(=O)OC)c1-c1cnc(Cl)c(Cl)c1 [Compound 282, methyl 5-(4-chloro-2-fluoro-phenyl)-2-(5,6-dichloro-3-pyridyl)-1-ethyl-6-methyl-4-oxo-pyridine-3-carboxylate] | 2 (2=21-40%) | 4 (4=61-80%) | 1 (1=0-20%) | 3 (3=41-60%) | 4 (4=61-80%) | 4 (4=61-80%) | 3 (3=41-60%) | – | 1 (1=0-20%) | 1 (1=0-20%) | 0 | 4 (4=61-80%)
CCn1c(C)c(-c2ccc(F)c(OC)c2F)c(=O)c(C(=O)O)c1-c1ccc(Cl)c(Cl)c1 [Compound 234, 2-(3,4-dichlorophenyl)-5-(2,4-difluoro-3-methoxy-phenyl)-1-ethyl-6-methyl-4-oxo-pyridine-3-carboxylic acid] | 4 (4=61-80%) | 5 (5=81-100%) | 4 (4=61-80%) | 3 (3=41-60%) | 4 (4=61-80%) | – | 2 (2=21-40%) | 2 (2=21-40%) | 5 (5=81-100%) | 5 (5=81-100%) | 4 (4=61-80%) | 3 (3=41-60%)
